{"source": "patent US20240423937A1", "about": "“METHODS OF TREATING PAIN AND USES THEREOF” (University of Tennessee Research Foundation, priority 2021, published 2024)", "key": {"[1]": {"tested_on": "γ-aminobutyric acid (GABA) receptors", "conditions": "cited from earlier work"}, "[2]": {"biological_target": "CACNA2D2 (Homo sapiens, UniProt Q9NY47)", "sequence (Q9NY47 19-1150, species assumed)": "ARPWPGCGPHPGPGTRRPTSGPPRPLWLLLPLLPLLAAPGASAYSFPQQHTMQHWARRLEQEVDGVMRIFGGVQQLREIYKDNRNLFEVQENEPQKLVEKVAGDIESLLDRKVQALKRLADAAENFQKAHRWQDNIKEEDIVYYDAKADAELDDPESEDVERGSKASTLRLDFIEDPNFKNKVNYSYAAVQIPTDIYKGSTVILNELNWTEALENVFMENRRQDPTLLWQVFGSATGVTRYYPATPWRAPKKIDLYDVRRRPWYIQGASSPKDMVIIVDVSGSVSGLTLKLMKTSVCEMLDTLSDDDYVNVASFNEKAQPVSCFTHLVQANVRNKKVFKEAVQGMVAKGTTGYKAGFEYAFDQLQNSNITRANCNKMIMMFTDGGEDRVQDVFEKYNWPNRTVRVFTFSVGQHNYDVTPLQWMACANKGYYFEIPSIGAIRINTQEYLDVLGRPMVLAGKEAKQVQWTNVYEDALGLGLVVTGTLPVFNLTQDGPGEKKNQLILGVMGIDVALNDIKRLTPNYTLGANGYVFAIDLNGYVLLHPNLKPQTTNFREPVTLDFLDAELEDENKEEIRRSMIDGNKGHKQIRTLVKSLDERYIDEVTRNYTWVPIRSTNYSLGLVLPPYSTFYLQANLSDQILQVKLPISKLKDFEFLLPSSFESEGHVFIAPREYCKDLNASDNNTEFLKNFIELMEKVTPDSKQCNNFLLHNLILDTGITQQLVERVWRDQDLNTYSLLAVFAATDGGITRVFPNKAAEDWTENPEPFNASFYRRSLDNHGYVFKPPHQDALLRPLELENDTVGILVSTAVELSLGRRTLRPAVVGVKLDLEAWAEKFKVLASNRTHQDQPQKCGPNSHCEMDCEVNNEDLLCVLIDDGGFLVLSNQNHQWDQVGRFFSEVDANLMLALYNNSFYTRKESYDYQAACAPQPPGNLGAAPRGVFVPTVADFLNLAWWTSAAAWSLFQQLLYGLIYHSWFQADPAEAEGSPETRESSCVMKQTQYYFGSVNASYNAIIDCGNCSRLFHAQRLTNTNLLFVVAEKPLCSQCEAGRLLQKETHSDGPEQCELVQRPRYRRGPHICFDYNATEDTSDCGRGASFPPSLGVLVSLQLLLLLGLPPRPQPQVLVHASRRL", "conditions": "cited from earlier work"}, "[3]": {"biological_target": "CACNA2D1 (Homo sapiens, UniProt P54289)", "sequence (P54289 25-1103)": "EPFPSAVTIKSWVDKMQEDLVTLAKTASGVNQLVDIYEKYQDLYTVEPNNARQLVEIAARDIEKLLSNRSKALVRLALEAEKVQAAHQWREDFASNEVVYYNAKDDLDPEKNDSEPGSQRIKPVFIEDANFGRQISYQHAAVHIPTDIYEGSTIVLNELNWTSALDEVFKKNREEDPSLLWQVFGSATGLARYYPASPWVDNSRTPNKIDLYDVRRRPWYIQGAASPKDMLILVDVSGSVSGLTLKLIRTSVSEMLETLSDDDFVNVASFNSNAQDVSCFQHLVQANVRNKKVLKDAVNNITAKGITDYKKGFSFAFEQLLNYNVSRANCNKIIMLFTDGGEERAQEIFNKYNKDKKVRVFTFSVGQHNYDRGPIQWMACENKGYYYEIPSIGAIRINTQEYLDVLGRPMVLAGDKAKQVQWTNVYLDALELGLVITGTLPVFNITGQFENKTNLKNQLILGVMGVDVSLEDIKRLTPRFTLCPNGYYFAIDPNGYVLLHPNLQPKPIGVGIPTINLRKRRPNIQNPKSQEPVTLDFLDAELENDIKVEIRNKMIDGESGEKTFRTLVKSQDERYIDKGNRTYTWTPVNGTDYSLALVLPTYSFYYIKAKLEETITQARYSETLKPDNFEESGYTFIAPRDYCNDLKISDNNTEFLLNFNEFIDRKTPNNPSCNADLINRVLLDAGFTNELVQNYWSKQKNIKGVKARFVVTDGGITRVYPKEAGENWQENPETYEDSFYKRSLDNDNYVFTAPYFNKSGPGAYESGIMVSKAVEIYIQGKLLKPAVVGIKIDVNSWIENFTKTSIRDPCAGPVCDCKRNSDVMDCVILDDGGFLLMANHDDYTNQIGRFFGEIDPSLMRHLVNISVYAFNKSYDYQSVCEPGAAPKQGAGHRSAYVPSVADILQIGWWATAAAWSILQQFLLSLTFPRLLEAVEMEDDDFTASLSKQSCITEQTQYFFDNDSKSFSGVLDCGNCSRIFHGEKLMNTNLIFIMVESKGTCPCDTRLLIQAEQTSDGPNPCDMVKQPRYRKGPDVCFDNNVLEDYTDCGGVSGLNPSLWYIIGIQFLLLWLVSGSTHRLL", "conditions": "cited from earlier work"}, "[4]": {"conditions": "not told; cited from earlier work"}, "[5]": {"experiment": "Topical pregabalin IOP lowering, aqueous / without microemulsion", "format": "in vivo", "description": "As a bidirectional component of our study, we corroborated an imputed single-nucleotide polymorphism (SNP) in CACNA2D1 within a human POAG population. Immunohistochemistry studies in humans, rabbits, and mice indicate that CACNA2D1 is located in the ciliary body (CB) and outflow structures (FIG. 2), both of which can influence IOP. […] These findings are consistent with earlier findings that implicated Ca^2+ flux as a regulator of IOP through actions in both the CB and outflow structures^13,14. This is highly significant because few approved IOP-lowering drugs act on both the inflow and outflow facilities, and that we can be able to clarify the implicated but yet unproven role of Ca^2+ flux on inflow and outflow control. On the therapeutic side, because the amplitude and duration of PRG-mediated IOP reduction in our studies were limited (17% IOP reduction that returns to baseline at 6 hr)^15, we then engineered a new topical extended release microemulsion (ME) formulation to increase PRG efficacy and duration of action^12. […] These findings indicate the development of PRG as a new class of glaucoma therapeutics with a MOA distinct from current approved IOP-lowering medications.\nHowever, the amplitude and duration of response were limited and unpractical for clinical use. To increase the efficacy of PRG as an IOP-lowering drug, we engineered a new microemulsion topical formulation^12. Our formulation was designed as a water-in-oil-in water microemulsion with 40% and 60% of the PRG in the innermost and outermost aqueous phases, respectively. Compartmentalization of PRG in two aqueous phases supports both a rapid onset and long duration of IOP-lowering action. Drug release from the outermost aqueous phase is fast, allowing for rapid IOP reduction. To be released from the innermost aqueous phase, however, PRG must pass through two interfaces—the inner water/oil interface and the outer oil/water interface—after which it must diffuse through the viscous polymer solution that constitutes the outmost aqueous phase of our multilayered ME (FIG. 12). Collectively the movement across both interfaces slows movement of PRG from our formulation and supports the extended IOP-lowering effect. After diffusion from the outermost polymer, PRG is available for absorption through the cornea. To ensure that the formulation will remain on the corneal surface for enough time to allow for the sustained release of the drug, the outermost hydrogel layer is prepared from Carbopol 981, which has excellent bio-adhesive properties."}, "[6]": {"tested_on": "BXD29 mice", "experiment": "Daily topical dosing of BXD29 mice for 6 weeks (IOP, optic nerve axons)", "format": "in vivo, mouse", "description": "Objective: An obstacle in this study is the in vivo assessment of any direct neuroprotective effects of PRG that are independent of IOP lowering. […] These characteristics make BXD29 ideal for evaluating the direct neuroprotective properties of PRG on RGCs by eliminating indirect effects that would be mediated through IOP reduction.\nWe have evidence to show, without wishing to be bound by theory, that topical dosing with our PRG ME is neuroprotective to RGC axons in the ON. We dosed BXD29 mice daily with PRG ME beginning at 5 weeks of age (FIG. 9A) before ON degeneration was marked. […] In contrast, ON from mice dosed with unmedicated ME had loss of axon profiles and increased areas of debris (FIG. 9C). The studies will evaluate the role of PRG as a RGC neuroprotectant and define its cellular mechanism of action."}, "[7]": {"tested_on": "Dutch belted rabbits", "experiment": "Single topical dose IOP lowering in Dutch belted rabbits", "format": "in vivo, rabbit", "conditions": "single drop", "description": "Non-limiting exemplary data: We made a discovery that can make PRG effective in treating vision loss in glaucoma. In addition to its presence in the anterior segment (FIG. 2), CACNA2D1 is also localized to RGCs (FIGS. 3A&B), as well as the ON (FIG. 3C). […] At 24 hours after dosing, IOP is still reduced by >20%.\nMoreover, the combined effect of all three layers of our W/O/W ME is critical for enhancing the efficacy of PRG. […] Using this same model, we will evaluate our optimized formulations from Test 1.1.\nResearch Design and Methods: Dutch belted rabbits (Envigo Rabbitry; formerly Covance) will be used in this single-dose design study. Rabbits from this rabbitry can have higher baseline IOP values than those purchased from other rabbitries. Rabbits (equally balanced between males and females) will be acclimated to handling and IOP measurements for at least seven days before initiation of the study. Slit-lamp biomicroscopic and fundoscopic examinations will be performed before and after the study. Our top three formulations from Test 1.1 will be tested in this model using our methods^12. The IOP of both eyes will be measured using a rebound tonometer (Tono-Pen AVIA Vet, Reichert) immediately before the formulation application (baseline, 8 am) and at hourly time intervals after application until the IOP returns to baseline. Using a sterile micropipette tip, thirty microliters of the formulation containing PRG ME or blank control will be instilled topically into one eye of each rabbit, while the fellow eye will receive the formulation vehicle, and therefore serve as controls. Rabbits will be dosed daily at 8 am for 21 days, and IOP collected at 8 am (immediately pre-dosing) and at the time at which the maximum IOP reduction is measured (Tmax) using our methods^12. Curves similar to FIG. 16 will be generated. Biocompatibility of the antioxidant-containing formulations will be assessed using with slit lamp biomicroscopy as in FIG. 17. […]"}, "[8]": {"conditions": "topical aqueous / initial PRG formulation"}, "[9]": {"conditions": "with versus without the microemulsion, species not stated"}}, "note": "Entries after “also recorded” stand apart in the source; their conditions may differ. Read-outs that look alike come from different tables or passages of the source.", "data": [{"smiles": "CC(C)C[C@H](CN)CC(=O)O", "note": "[pregabalin]", "values": [{"measurement": "binding to GABA receptors", "setting": "[1]", "value": "does not bind"}, {"measurement": "binding to CACNA2D2", "setting": "[2]", "value": "bind"}, {"measurement": "affinity / specificity for CACNA2D1", "setting": "[3]", "value": "antagonist with specificity for CACNA2D1 and high specificity for CACNA2D1 and bind"}, {"measurement": "affinity / specificity for CACNA2D1", "setting": "[3]; listed as PRG", "value": "high affinity and specificity; also recorded: binds with high affinity"}, {"measurement": "affinity / specificity for CACNA2D1", "setting": "[3]; listed as Pregabalin", "value": "high affinity and specificity"}, {"measurement": "membrane permeability", "setting": "[4]", "value": "high membrane permeability"}, {"measurement": "IOP reduction", "setting": "[5]; [8]", "value": 17, "unit": "%"}, {"measurement": "return of IOP to baseline after dosing", "setting": "[5]; [8]", "value": 6, "unit": "h"}, {"measurement": "dose dependence of IOP lowering", "setting": "[5]; topical dosing", "value": "dose dependent manner"}, {"measurement": "IOP lowering", "setting": "[5]; [9]", "value": "about 20%"}, {"measurement": "return of IOP to baseline after dosing", "setting": "[5]; [9]", "value": "8 to 10", "unit": "h"}, {"measurement": "optic nerve axon preservation", "setting": "[6]; daily topical dosing for 6 weeks from 5 weeks of age", "value": "prevents degeneration of axons in the ON even in the absence of a reduction in IOP"}, {"measurement": "IOP response of BXD29 mice", "setting": "[6]; topical, up to 6 weeks of daily dosing", "value": "unresponsive"}, {"measurement": "AUC of IOP reduction", "setting": "[7]", "value": 38, "unit": "mmHg·hr"}, {"measurement": "maximal % reduction in IOP", "setting": "[7]", "value": 30, "unit": "%"}, {"measurement": "time at which IOP returns to baseline", "setting": "[7]", "value": 10, "unit": "h"}]}]}
